≈ marks a conversion by molar mass, not a printed value.
Molecular target: T1, PI3Kδ (recombinant GST-tagged PIK3CD co-expressed with PIK3R1, p85α) (Homo sapiens, UniProt O00329)
T1 construct: The protein is full length and co-expressed with untagged PIK3R1; GST; purchased Invitrogen PV5274
Experiment: modified PIK3CD Adapta TR-FRET kinase assay (PI3Kδ inhibition)
Format: biochemical
Settings: 2 μM ATP, 50 μM PIP2, room temperature, 1 hour
Procedure: The activity of compounds as PI3Kδ inhibitors may be determined by a variety of methods, including in vitro and in vivo methods. The following in vitro assay measures a test compound's ability to inhibit PI3Kδ-mediated phosphorylation of PIP2 and ATP.
Recombinant GST-tagged PIK3CD is purchased from Invitrogen (Part Number: PV5274). The protein is full length and co-expressed with untagged PIK3R1, phosphoinositide-3-kinase regulatory subunit 1 (p85α). The protein is stored at −20° C. in 50 mM TRIS (pH 7.5), 150 mM NaCl, 0.5 mM EDTA, 0.02% Triton® X-100, 2 mM DTT, and 50% glycerol.
A modified PIK3CD Adapta® assay (Invitrogen, Carlsbad, Calif.) is used to measure PI3Kδ inhibition of the example compounds. The assay has two phases. In the first phase, kinase reaction components, which include the enzyme (PIK3CD), substrates (PIP2, ATP), test compound (inhibitor), and assay buffer are added to each well, and the reaction is allowed to incubate for a pre-determined period of time. After reaction, a detection solution composed of a Eu (europium)-labeled anti-ADP antibody, Alexa Fluor® 647-labeled ADP tracer, and EDTA (to stop the kinase reaction) is added to each assay well. In this second phase, ADP formed by the kinase reaction displaces the Alexa Fluor® 647-labeled ADP tracer from the antibody, resulting in a decrease in time-resolved fluorescence resonance energy transfer (TR-FRET) signal. In the presence of the inhibitor, the amount of ADP formed by the kinase reaction is reduced, and the resulting intact antibody-tracer interaction maintains a high TR-FRET signal.
The assay uses black Greiner® 384-well plates (784076). The reaction buffer contains 50 mM Hepes (pH 7.5), 3 mM MgCl2, 1 mM EGTA, 100 mM NaCl, 0.03% CHAPS; 2 mM DTT is added fresh prior to each experiment. Enzyme (4 μL, estimated 1.5 nM in buffer) is first added to the wells of the plate. Next, test compounds (2 μL) from a source plate (5% dilution plate) are introduced into the wells. The final DMSO concentration in each assay well is 1%. […] Other wells contain test compounds serially diluted across the plate 11 times for a total of 12 data points. The kinase reactions are carried out at room temperature and are initiated by the addition of 4 μL of solution containing 2 μM ATP and 50 μM PIP2. Each reaction is stopped after 1 hour±10 minutes via addition of […], which contains a final assay concentration of 3 nM Alexa Fluor® 647-labeled ADP tracer, 2 nM Eu-anti-ADP Antibody, and 10 mM EDTA. After allowing the solutions to equilibrate for 30±10 minutes, a PHERAstar plate reader is used to excite the Eu donor (at 337 nm) and to detect emission from the Alexa Fluor® 647 at 665 nm. This emission signal is referenced or “ratioed” to the emission from Eu at 620 nm. The emission ratio (665 nm/620 nm) from each well is collected and converted to percent conversion using a standard curve for the assay conditions: % conversion=B*(C+A−emission ratio)/(emission ratio−C), where “A” and “C” are the maximum and minimum values of the emission ratio obtained from the standard curve of emission ratio vs. % conversion (ATP-ADP); “B” is the emission ratio corresponding to the % conversion at the EC50 value for the ADP Tracer-Eu anti-ADP antibody complex. The percent inhibition for a given inhibitor concentration is computed from % conversion for the reaction and for the positive and negative controls. Corresponding IC50 values (molar concentration at 50% inhibition) are calculated by non-linear curve fitting of the compound concentrations and values of percent inhibition to the standard IC50 equation.

T1 sequence (O00329 whole entry): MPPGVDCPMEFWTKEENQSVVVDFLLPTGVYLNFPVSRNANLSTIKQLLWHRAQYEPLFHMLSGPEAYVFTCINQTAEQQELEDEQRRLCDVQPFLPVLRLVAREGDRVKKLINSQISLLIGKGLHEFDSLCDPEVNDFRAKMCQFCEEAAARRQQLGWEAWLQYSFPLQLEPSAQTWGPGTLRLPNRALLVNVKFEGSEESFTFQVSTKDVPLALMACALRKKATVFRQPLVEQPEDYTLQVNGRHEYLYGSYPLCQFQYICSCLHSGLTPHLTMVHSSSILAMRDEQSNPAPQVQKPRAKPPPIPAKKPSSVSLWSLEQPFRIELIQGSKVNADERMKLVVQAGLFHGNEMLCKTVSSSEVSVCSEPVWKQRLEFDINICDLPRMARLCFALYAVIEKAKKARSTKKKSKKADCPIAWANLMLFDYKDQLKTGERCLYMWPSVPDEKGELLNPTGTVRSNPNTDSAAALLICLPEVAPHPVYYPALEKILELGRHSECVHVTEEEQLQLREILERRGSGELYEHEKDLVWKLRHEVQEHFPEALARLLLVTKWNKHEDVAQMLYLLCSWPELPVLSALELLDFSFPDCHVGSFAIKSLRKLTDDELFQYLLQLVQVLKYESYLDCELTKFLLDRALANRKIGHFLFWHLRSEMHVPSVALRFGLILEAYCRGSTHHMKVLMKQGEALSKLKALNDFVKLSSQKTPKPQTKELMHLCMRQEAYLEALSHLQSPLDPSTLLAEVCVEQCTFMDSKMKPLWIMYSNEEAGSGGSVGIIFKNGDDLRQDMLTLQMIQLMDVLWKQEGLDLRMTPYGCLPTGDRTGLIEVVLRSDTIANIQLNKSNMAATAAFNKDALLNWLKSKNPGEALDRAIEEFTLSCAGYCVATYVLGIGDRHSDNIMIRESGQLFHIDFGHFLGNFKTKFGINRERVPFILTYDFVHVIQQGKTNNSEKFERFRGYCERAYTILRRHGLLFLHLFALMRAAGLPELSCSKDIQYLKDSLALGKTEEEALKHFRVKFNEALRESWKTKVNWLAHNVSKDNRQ
T1 sequence (P27986 whole entry partner): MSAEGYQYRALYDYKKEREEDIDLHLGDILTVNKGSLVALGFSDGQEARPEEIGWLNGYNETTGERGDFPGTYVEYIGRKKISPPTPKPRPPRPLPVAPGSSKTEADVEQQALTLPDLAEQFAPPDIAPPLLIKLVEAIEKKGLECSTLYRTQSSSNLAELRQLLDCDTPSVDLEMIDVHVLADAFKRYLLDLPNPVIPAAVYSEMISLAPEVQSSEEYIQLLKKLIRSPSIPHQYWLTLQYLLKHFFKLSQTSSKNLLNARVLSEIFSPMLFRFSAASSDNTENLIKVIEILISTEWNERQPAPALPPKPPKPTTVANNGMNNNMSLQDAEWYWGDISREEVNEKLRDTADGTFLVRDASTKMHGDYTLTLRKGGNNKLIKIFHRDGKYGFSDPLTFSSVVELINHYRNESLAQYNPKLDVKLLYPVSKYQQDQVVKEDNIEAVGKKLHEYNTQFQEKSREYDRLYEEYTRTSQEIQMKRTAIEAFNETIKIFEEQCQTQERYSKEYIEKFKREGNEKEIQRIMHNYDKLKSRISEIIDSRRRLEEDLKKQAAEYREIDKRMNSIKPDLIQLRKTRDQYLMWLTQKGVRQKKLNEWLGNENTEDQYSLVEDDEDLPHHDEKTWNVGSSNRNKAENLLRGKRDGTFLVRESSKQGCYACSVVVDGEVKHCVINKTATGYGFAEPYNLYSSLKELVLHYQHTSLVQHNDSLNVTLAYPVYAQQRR

Row | Molecule | IC50
1 | 4-((S)-1-(6-((1S,4S)-2,5-Diazabicyclo[2.2.1]heptan-2-yl)-1-methyl-1H-pyrrolo[3,2-b]pyridin-5-yl)ethylamino)-2-amino-6-methylpyrimidine-5-carbonitrile [Example 14] | 0.6 nM
2 | Cc1nc(N)nc(N[C@@H](C)c2nc3ccn(C)c3cc2C2CCC(N)CC2)c1C#N (mixture of isomers) [Example 18, (S)-2-Amino-4-((1-(6-(4-aminocyclohexyl)-1-methyl-1H-pyrrolo[3,2-b]pyridin-5-yl)ethyl)amino)-6-methylpyrimidine-5-carbonitrile] | 1.7 nM
3 | Cc1nc(N)nc(N[C@@H](C)c2nc3ccn(C)c3cc2N2CCC[C@@H](N)C2)c1C#N (single isomer, unassigned) [Example 4] | 2.9 nM
4 | Cc1nc(N)nc(N[C@@H](C)c2nc3ccn(C)c3cc2N2CCC[C@H](N)C2)c1C#N (single isomer, unassigned) [Example 5] | 5.4 nM
5 | Cc1nc(N)nc(N[C@@H](C)c2nc3ccn(C)c3cc2N2CC[C@@H](N)C2)c1C#N (single isomer, unassigned) [Example 7] | 4.2 nM
6 | Cc1nc(N)nc(N[C@@H](C)c2nc3ccn(C)c3cc2N2CC[C@H](N)C2)c1C#N (single isomer, unassigned) [Example 8] | 2.6 nM
7 | Cc1nc(N)nc(N[C@@H](C)c2nc3ccn(C)c3cc2[C@@H]2CCNC2)c1C#N (single isomer, unassigned) [Example 10] | 3.5 nM
8 | Cc1nc(N)nc(N[C@@H](C)c2nc3ccn(C)c3cc2[C@H]2CCNC2)c1C#N (single isomer, unassigned) [Example 11] | 1.3 nM
9 | Cc1nc(N)nc(N[C@@H](C)c2nc3ccn(C)c3cc2N2CCCNCC2)c1C#N [Example 2, (S)-4-(1-(6-(1,4-Diazepan-1-yl)-1-methyl-1H-pyrrolo[3,2-b]pyridin-5-yl)ethylamino)-2-amino-6-methylpyrimidine-5-carbonitrile] | 5 nM
10 | CN[C@H]1CCN(c2cc3c(ccn3C)nc2[C@H](C)Nc2nc(N)nc(C)c2C#N)C1 [Example 3, 2-Amino-4-methyl-6-((S)-1-(1-methyl-6-((S)-3-(methylamino)pyrrolidin-1-yl)-1H-pyrrolo[3,2-b]pyridin-5-yl)ethylamino)pyrimidine-5-carbonitrile] | 5.6 nM
11 | Cc1nc(N)nc(N[C@@H](C)c2nc3ccn(C)c3cc2N2CCN[C@@H](C)C2)c1C#N [Example 6, 2-Amino-4-methyl-6-((S)-1-(1-methyl-6-((S)-3-methylpiperazin-1-yl)-1H-pyrrolo[3,2-b]pyridin-5-yl)ethylamino)pyrimidine-5-carbonitrile] | 5 nM
12 | Cc1nc(N)nc(N[C@@H](C)c2nc3ccn(C)c3cc2N2CCN[C@H](C)C2)c1C#N [Example 9, 2-Amino-4-methyl-6-((S)-1-(1-methyl-6-((R)-3-methylpiperazin-1-yl)-1H-pyrrolo[3,2-b]pyridin-5-yl)ethylamino)pyrimidine-5-carbonitrile] | 2.2 nM
13 | Cc1nc(N)nc(N[C@@H](C)c2nc3ccn(C)c3cc2C2CCNCC2)c1C#N [Example 12, (S)-2-Amino-4-methyl-6-(1-(1-methyl-6-(piperidin-4-yl)-1H-pyrrolo[3,2-b]pyridin-5-yl)ethylamino)pyrimidine-5-carbonitrile] | 1.4 nM
14 | C[C@H](Nc1nc(N)nc(N)c1C#N)c1nc2ccn(C)c2cc1N1CCNCC1 [Example 13, (S)-2,4-Diamino-6-(1-(1-methyl-6-(piperazin-1-yl)-1H-pyrrolo[3,2-b]pyridin-5-yl)ethylamino)pyrimidine-5-carbonitrile] | 1 nM
15 | Cc1nc(N)nc(N[C@@H](C)c2nc3ccn(C)c3cc2NC2CCNCC2)c1C#N [Example 15, (S)-2-Amino-4-methyl-6-((1-(1-methyl-6-(piperidin-4-ylamino)-1H-pyrrolo[3,2-b]pyridin-5-yl)ethyl)amino)pyrimidine-5-carbonitrile] | 5.5 nM
16 | Cc1nc(N)nc(N[C@@H](C)c2nc3ccn(C)c3cc2N(C)C2CNC2)c1C#N [Example 16, (S)-2-Amino-4-((1-(6-(azetidin-3-yl(methyl)amino)-1-methyl-1H-pyrrolo[3,2-b]pyridin-5-yl)ethyl)amino)-6-methylpyrimidine-5-carbonitrile] | 2.4 nM
17 | Cc1nc(N)nc(N[C@@H](C)c2nc3ccn(C)c3cc2C2=CCC(N)CC2)c1C#N (stereo partly drawn) [Example 17, 2-Amino-4-(((1S)-1-(6-(4-aminocyclohex-1-en-1-yl)-1-methyl-1H-pyrrolo[3,2-b]pyridin-5-yl)ethyl)amino)-6-methylpyrimidine-5-carbonitrile] | 8.5 nM
18 | CC[C@H](Nc1nc(N)nc(C)c1C#N)c1nc2ccn(C)c2cc1N1CCNCC1 [Example 19, (S)-2-Amino-4-methyl-6-((1-(1-methyl-6-(piperazin-1-yl)-1H-pyrrolo[3,2-b]pyridin-5-yl)propyl)amino)pyrimidine-5-carbonitrile] | 0.8 nM
19 | CCc1nc(N)nc(N[C@@H](C)c2nc3ccn(C)c3cc2N2CCNCC2)c1C#N [Example 20, (S)-2-Amino-4-ethyl-6-((1-(1-methyl-6-(piperazin-1-yl)-1H-pyrrolo[3,2-b]pyridin-5-yl)ethyl)amino)pyrimidine-5-carbonitrile] | 220 nM
20 | (S)-2-Amino-4-methyl-6-(1-(1-methyl-6-(piperazin-1-yl)-1H-pyrrolo[3,2-b]pyridin-5-yl)ethylamino)pyrimidine-5-carbonitrile [Example 1] | 0.7 nM

System: not given
Experiment: not given
Settings: pH 6.8

Row | Molecule | Thermodynamic Solubility in JP2
21 | 4-((S)-1-(6-((1S,4S)-2,5-Diazabicyclo[2.2.1]heptan-2-yl)-1-methyl-1H-pyrrolo[3,2-b]pyridin-5-yl)ethylamino)-2-amino-6-methylpyrimidine-5-carbonitrile [Example 14] | >1830 µg/mL

System: not listed separately
Experiment: Thermodynamic solubility assay in JP2
Settings: JP2 (Japan Pharmacopoeia 2nd fluid for dissolution), 37 °C, pH 6.8, aqueous buffer, thermodynamic from solid
Procedure: Testing media for both assays are prepared as follows: • JP1 (Japan Pharmacopoeia 1st fluid for dissolution): In a 1 L volumetric flask, dissolve 2.0 g sodium chloride in about 500 mL deionized water. Add 84 mL of 1M hydrochloric acid and dilute to volume with deionized water. Mix thoroughly. • JP2 (Japan Pharmacopoeia 2nd fluid for dissolution): In a 1 L volumetric flask dissolve 6.806 g of anhydrous potassium phosphate monobasic in about 500 mL of deionized water. Add 23.6 mL of 1M sodium hydroxide and dilute to volume with deionized water. Mix thoroughly. • GCDC (20-mM sodium glycochenodeoxycholate in JP2): In a 50 mL volumetric flask, dissolve 0.475 g of sodium glycochenodeoxycholate with ˜30 mL JP2. Dilute to volume with additional JP2. Mix thoroughly. • Other pH buffers between pH 2-6 can also be prepared as additional testing media.
About 3 mg of compound is weighed into an HPLC vial. Testing medium (0.5 mL) is then added to the compound vial. The vial is sealed with a screw-on cap and placed in an incubator set at 37° C. with orbital shaking at 150 RPM for overnight equilibration. At the end of equilibration, the final pH is measured, and whether the compound is totally dissolved (clear solution) or not (solid in vial) is recorded. Then the sample mixture is transferred to a centrifuge tube with filter insert (0.45 μm nylon filter) and centrifuge filtered. The filtrate is diluted appropriately (2 to 50× dilution) before HPLC analysis. A calibration standard is prepared by dissolving ˜5 mg of compound in diluent and q.s. to volume in a 20 mL volumetric flask. A separate QC standard is prepared at about the same concentration. The default diluent is 1:1 acetonitrile/water. Alternative diluents such as 1:1 DMA/water and other mixtures may also be used depending on the solubility behavior of the compound. The calibration response factor is calculated by dividing the standard peak area with standard concentration. The sample solubility in a test medium is calculated by dividing the sample peak area with the corresponding standard response factor and multiplied by sample dilution factor. The response factor from QC standard is also calculated and compared with calibration standard. If the response factors of the calibration and QC standard differ by more than 5%, new calibration and QC standards should be prepared and samples are reanalyzed with new standards.

Row | Molecule | solubility thermodynamic
22 | C[C@H](Nc1nc(N)nc(N)c1C#N)c1nc2ccn(C)c2cc1C1CCOCC1 [A, reference compound] | 20 µg/mL (≈ 51 µM)
23 | C[C@H](Nc1nc(N)nc(N)c1C#N)c1nc2ccn(C)c2cc1N1CCOCC1 [B, reference compound] | 26 µg/mL (≈ 66.1 µM)
24 | Cc1nc(N)nc(N[C@@H](C)c2nc3ccn(C)c3cc2N2CCN[C@@H](C)C2)c1C#N [Example 6, 2-Amino-4-methyl-6-((S)-1-(1-methyl-6-((S)-3-methylpiperazin-1-yl)-1H-pyrrolo[3,2-b]pyridin-5-yl)ethylamino)pyrimidine-5-carbonitrile] | 1730 µg/mL (≈ 4270 µM)
25 | Cc1nc(N)nc(N[C@@H](C)c2nc3ccn(C)c3cc2C2CCNCC2)c1C#N [Example 12, (S)-2-Amino-4-methyl-6-(1-(1-methyl-6-(piperidin-4-yl)-1H-pyrrolo[3,2-b]pyridin-5-yl)ethylamino)pyrimidine-5-carbonitrile] | 150 µg/mL (≈ 384 µM)

Same assay, conditions: solid free base, JP2 (Japan Pharmacopoeia 2nd fluid), 37° C., overnight equilibration

Row | Molecule | Thermodynamic Solubility in JP2
26 | (S)-2-Amino-4-methyl-6-(1-(1-methyl-6-(piperazin-1-yl)-1H-pyrrolo[3,2-b]pyridin-5-yl)ethylamino)pyrimidine-5-carbonitrile [Example 1] | 2195 µg/mL
